Measured values: patent publication US4122034A, “Antimicrobial compositions” (Schering Corporation, priority 1975, dated 1978)
Converted amounts (≈) assume the structure as drawn.

What was measured:
[1] = test system: Trichophyton schoenleinii; experiment: In vitro antifungal activity, dilutions in Sabouraud's Dextrose Broth (Table IV); format: cell-based; conditions: 96 h
Method in brief: (§1)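 Compounds are serially diluted in broth and the organism is exposed under standard conditions. Growth is scored as needed, and the minimum inhibitory concentration is recorded.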

Trichophyton discoides = experiment: as above; format: cell-based; conditions: after 96 hours
Method in brief: as §1

[2] = test system: Trichophyton mentagrophytes; experiment: as above; format: cell-based; conditions: 96 h
Method in brief: as §1

Trichophyton soudenense = experiment: as above; format: cell-based; conditions: after 96 hours
Method in brief: as §1

Trichophyton ascoides = experiment: as above; format: cell-based; conditions: after 96 hours
Method in brief: as §1

Trichophyton rubrum = experiment: as above; format: cell-based; conditions: 96 h
Method in brief: as §1

Trichophyton tonsurans = experiment: as above; format: cell-based; conditions: after 96 hours
Method in brief: as §1

Microsporum distortum = experiment: as above; format: cell-based; conditions: after 96 hours
Method in brief: as §1

Trichophyton megninii = experiment: as above; format: cell-based; conditions: Trichophyton rubrum; after 96 hours
Method in brief: as §1

Epidermophyton floccosum = experiment: as above; format: cell-based; conditions: after 96 hours
Method in brief: as §1

Microsporum nanum = experiment: as above; format: cell-based; conditions: Nannizzia nana; after 96 hours
Method in brief: as §1

Trichophyton gallinae = experiment: as above; format: cell-based; conditions: after 96 hours
Method in brief: as §1

Tricoderm sp. = experiment: as above; format: cell-based; conditions: after 96 hours
Method in brief: as §1

Aspergillus niger 6275 = experiment: as above; format: cell-based; conditions: after 96 hours
Method in brief: as §1

Aspergillus sp. No. 3 = experiment: as above; format: cell-based; conditions: after 96 hours
Method in brief: as §1

Trichophyton ferrugineum = experiment: as above; format: cell-based; conditions: Microsporum ferrugineum; after 96 hours
Method in brief: as §1

Streptococcus pyogenes = experiment: In vitro antibacterial activity, dilution in Mueller Hinton Agar (Table I); format: cell-based
Method in brief: (§2)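 Reported values: minimum inhibitory concentration. Plates were at pH 7.4, with scoring done per standard practice where required.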

Proteus mirabilis = experiment: as above; format: cell-based; conditions: Mueller Hinton Agar pH 7.4
Method in brief: as §2

Escherichia coli = experiment: as above; format: cell-based
Method in brief: as §2

[3] = Acute toxicity in mice (Table V); conditions: mouse, in vivo
Description: (§3) All the tests were carried out and (when necessary) scored under standard conditions. "MIC" means "minimum inhibitory concentration."
Acute Toxicity of 2-aminoalkyl-3-phenylindoles of the formula I

Candida albicans = experiment: In vitro Anti-Candida activity, dilutions in Sabouraud's Dextrose Agar (Table III); format: cell-based; conditions: 48 h
Description: as §3
In vitro Anti-Candida Activity of 2-aminoalkyl-3-phenyl-
indoles of the formula I. Dilutions in Sabouraud's Dextrose
MIC (mcg/ml) after 48 hours

Trychomonas vaginalis = experiment: In vitro Anti-Trichomonal activity (Table VII); format: cell-based
Description: as §3
In vitro Anti-Trichomonal Activity of some 2-aminoalkyl-3-
phenyl-indenes of formula II.

Peptostreptococcus = experiment: In vitro activity against anaerobes in fluid Thioglycollate medium (Table II); format: cell-based
Method in brief: (§4)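 Under standard conditions, each organism was exposed to the test compounds and the minimum inhibitory concentration was recorded.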

Bacteroides fragilis = experiment: as above; format: cell-based
Method in brief: as §4

Eubacterium lentum = experiment: as above; format: cell-based; conditions: Eggerthella lenta
Method in brief: as §4

[4] = test system: Bacteroides melaninogenicus; experiment: as above; format: cell-based
Method in brief: as §4

Clostridium novyi = experiment: as above; format: cell-based
Method in brief: as §4

Clostridium septicum = experiment: as above; format: cell-based
Method in brief: as §4

Bacteroides corrodens = experiment: as above; format: cell-based; conditions: Eikenella corrodens
Method in brief: as §4

Clostridium histolyticum = experiment: as above; format: cell-based; conditions: Hathewaya histolytica
Method in brief: as §4

Work on NCc1[nH]c2ccc(Cl)cc2c1-c1ccc(Cl)cc1Cl [E] yielded an MIC ([1]; strain 2, after 96 hours) of 3 µg/mL (≈ 9.21 µM), an MIC ([1]; strain not given, after 96 hours) of 3 µg/mL (≈ 9.21 µM) and an MIC (Trichophyton discoides) of 7.5 µg/mL (≈ 23 µM). For the same compound, the MIC ([2]; strain A, after 96 hours) was 3 µg/mL (≈ 9.21 µM), the MIC ([2]; strain B, after 96 hours) was 17.5 µg/mL (≈ 53.7 µM) and the MIC ([2]; strain C, after 96 hours) was 17.5 µg/mL (≈ 53.7 µM). For the same compound, the MIC ([2]; strain H377, after 96 hours) was 7.5 µg/mL (≈ 23 µM), the MIC ([2]; strain Young, after 96 hours) was 3 µg/mL (≈ 9.21 µM) and the MIC (Trichophyton soudenense) was 7.5 µg/mL (≈ 23 µM). It also gave an MIC (Trichophyton ascoides) of 7.5 µg/mL (≈ 23 µM), an MIC (Trichophyton rubrum; strain 3, after 96 hours) of 3 µg/mL (≈ 9.21 µM) and an MIC (Trichophyton rubrum; strain 360, after 96 hours) of 3 µg/mL (≈ 9.21 µM). For the same compound, the MIC (Trichophyton rubrum; strain Blehl, after 96 hours) was 3 µg/mL (≈ 9.21 µM), the MIC (Trichophyton rubrum; strain Haggerty, after 96 hours) was 3 µg/mL (≈ 9.21 µM) and the MIC (Trichophyton tonsurans) was 7.5 µg/mL (≈ 23 µM). For the same compound, the MIC (Microsporum distortum) was 3 µg/mL (≈ 9.21 µM), the MIC (Trichophyton megninii) was 3 µg/mL (≈ 9.21 µM) and the MIC (Epidermophyton floccosum) was 3 µg/mL (≈ 9.21 µM). For the same compound, the MIC (Microsporum nanum) was 3 µg/mL (≈ 9.21 µM), the MIC (Trichophyton gallinae) was 17.5 µg/mL (≈ 53.7 µM) and the MIC (Tricoderm sp.) was 3 µg/mL (≈ 9.21 µM). It also gave an MIC (Aspergillus niger 6275) of 17.5 µg/mL (≈ 53.7 µM), an MIC (Aspergillus sp. No. 3) of 17.5 µg/mL (≈ 53.7 µM) and an MIC (Trichophyton ferrugineum) of 7.5 µg/mL (≈ 23 µM). For the same compound, the MIC (Streptococcus pyogenes; pH 7.4, strain 27, Mueller Hinton Agar pH 7.4) was 3 µg/mL (≈ 9.21 µM), the MIC (Streptococcus pyogenes; pH 7.4, strain C, Mueller Hinton Agar pH 7.4) was 3 µg/mL (≈ 9.21 µM) and the MIC (Streptococcus pyogenes; pH 7.4, strain Cruz, Mueller Hinton Agar pH 7.4) was 0.8 µg/mL (≈ 2.46 µM). It also gave an MIC (Proteus mirabilis; pH 7.4, strain Hard) of 3 µg/mL (≈ 9.21 µM), an MIC (Proteus mirabilis; pH 7.4, strain Peras) of 17.5 µg/mL (≈ 53.7 µM) and an MIC (Escherichia coli; pH 7.4, strain 777, Mueller Hinton Agar pH 7.4) of 3 µg/mL (≈ 9.21 µM). It also gave an MIC (Escherichia coli; pH 7.4, strain 1574-1, Mueller Hinton Agar pH 7.4) of 3 µg/mL (≈ 9.21 µM), an MIC (Escherichia coli; pH 7.4, strain 4195, Mueller Hinton Agar pH 7.4) of 3 µg/mL (≈ 9.21 µM) and an MIC (Escherichia coli; pH 7.4, strain 10536, Mueller Hinton Agar pH 7.4) of 3 µg/mL (≈ 9.21 µM). The MIC (Escherichia coli; pH 7.4, strain JR66, Mueller Hinton Agar pH 7.4) was 3 µg/mL (≈ 9.21 µM), the LD50 ([3]; Oral) was ~700 mg/kg and the LD50 ([3]; ip, I.P.) was 85 mg/kg. For the same compound, the LD50 ([3]; sc, S.C.) was 540 mg/kg, the MIC (Candida albicans; strain 1, after 48 hours) was 37.5 µg/mL (≈ 115 µM) and the MIC (Candida albicans; strain 2, after 48 hours) was 37.5 µg/mL (≈ 115 µM). It also gave an MIC (Candida albicans; strain 3, after 48 hours) of 37.5 µg/mL (≈ 115 µM), an MIC (Candida albicans; strain 4, after 48 hours) of 17.5 µg/mL (≈ 53.7 µM) and an MIC (Candida albicans; strain 5, after 48 hours) of 17.5 µg/mL (≈ 53.7 µM). The MIC (Candida albicans; strain 6, after 48 hours) was 37.5 µg/mL (≈ 115 µM), the MIC (Candida albicans; strain 8, after 48 hours) was 37.5 µg/mL (≈ 115 µM) and the MIC (Candida albicans; strain 9, after 48 hours) was 37.5 µg/mL (≈ 115 µM). For the same compound, the MIC (Candida albicans; strain 29, after 48 hours) was 37.5 µg/mL (≈ 115 µM), the MIC (Candida albicans; strain Atkisson, after 48 hours) was 37.5 µg/mL (≈ 115 µM) and the MIC (Candida albicans; strain Bertrand, after 48 hours) was 37.5 µg/mL (≈ 115 µM). The MIC (Candida albicans; strain Bevan, after 48 hours) was 37.5 µg/mL (≈ 115 µM), the MIC (Candida albicans; strain Blunden, after 48 hours) was 37.5 µg/mL (≈ 115 µM) and the MIC (Candida albicans; strain Bognay, after 48 hours) was 37.5 µg/mL (≈ 115 µM). It also gave an MIC (Candida albicans; strain Boyer, after 48 hours) of 37.5 µg/mL (≈ 115 µM), an MIC (Candida albicans; strain Burke, after 48 hours) of 37.5 µg/mL (≈ 115 µM) and an MIC (Candida albicans; strain Burnside, after 48 hours) of 37.5 µg/mL (≈ 115 µM). For the same compound, the MIC (Candida albicans; strain Collins, after 48 hours) was 37.5 µg/mL (≈ 115 µM), the MIC (Candida albicans; strain Fix, after 48 hours) was 37.5 µg/mL (≈ 115 µM) and the MIC (Candida albicans; strain Frazier, after 48 hours) was 37.5 µg/mL (≈ 115 µM). The MIC (Candida albicans; strain Fulcher, after 48 hours) was 37.5 µg/mL (≈ 115 µM), the MIC (Candida albicans; strain Gay, after 48 hours) was 37.5 µg/mL (≈ 115 µM) and the MIC (Candida albicans; strain Hons, after 48 hours) was 37.5 µg/mL (≈ 115 µM). For the same compound, the MIC (Candida albicans; strain Johnson, after 48 hours) was 37.5 µg/mL (≈ 115 µM), the MIC (Candida albicans; strain Kenndy 2, after 48 hours) was 37.5 µg/mL (≈ 115 µM) and the MIC (Candida albicans; strain Kennedy 1, after 48 hours) was 37.5 µg/mL (≈ 115 µM). For the same compound, the MIC (Candida albicans; strain Lehtman, after 48 hours) was 37.5 µg/mL (≈ 115 µM), the MIC (Candida albicans; strain Lusk, after 48 hours) was 37.5 µg/mL (≈ 115 µM) and the MIC (Candida albicans; strain Merkel, after 48 hours) was 37.5 µg/mL (≈ 115 µM). For the same compound, the MIC (Candida albicans; strain Newcomb, after 48 hours) was 17.5 µg/mL (≈ 53.7 µM), the MIC (Candida albicans; strain Sherod, after 48 hours) was 37.5 µg/mL (≈ 115 µM) and the MIC (Candida albicans; strain Shurelli, after 48 hours) was 37.5 µg/mL (≈ 115 µM). For the same compound, the MIC (Candida albicans; strain Sparks, after 48 hours) was 37.5 µg/mL (≈ 115 µM), the MIC (Candida albicans; strain Tyner, after 48 hours) was 37.5 µg/mL (≈ 115 µM) and the IC50 (Trychomonas vaginalis; 50% suppression, read-out: Minimal Level to Produce 50% Suppression) was 14 µg/mL (≈ 43 µM). It also gave an IC90 (Trychomonas vaginalis; 90% suppression, read-out: Minimal Level to Produce 90% Suppression) of 28 µg/mL (≈ 86 µM), an MIC (Peptostreptococcus; 48 hrs) of 0.75 µg/mL (≈ 2.3 µM) and an MIC (Peptostreptococcus; 72 hrs) of 0.75 µg/mL (≈ 2.3 µM). The MIC (Bacteroides fragilis; 48 hrs) was 0.75 µg/mL (≈ 2.3 µM), the MIC (Bacteroides fragilis; 72 hrs) was 0.75 µg/mL (≈ 2.3 µM) and the MIC (Eubacterium lentum; 48 hrs) was 3 µg/mL (≈ 9.21 µM). For the same compound, the MIC (Eubacterium lentum; 72 hrs) was 3 µg/mL (≈ 9.21 µM), the MIC ([4]; 48 hrs) was 3 µg/mL (≈ 9.21 µM) and the MIC ([4]; 72 hrs) was 3 µg/mL (≈ 9.21 µM). For the same compound, the MIC (Clostridium novyi; 48 hrs) was 0.75 µg/mL (≈ 2.3 µM), the MIC (Clostridium novyi; 72 hrs) was 0.75 µg/mL (≈ 2.3 µM) and the MIC (Clostridium septicum; 48 hrs) was 0.75 µg/mL (≈ 2.3 µM). It also gave an MIC (Clostridium septicum; 72 hrs) of 0.75 µg/mL (≈ 2.3 µM), an MIC (Bacteroides corrodens; 48 hrs) of 0.75 µg/mL (≈ 2.3 µM) and an MIC (Bacteroides corrodens; 72 hrs) of 3 µg/mL (≈ 9.21 µM). It also gave an MIC (Clostridium histolyticum; 48 hrs) of 0.3 µg/mL (≈ 0.921 µM) and an MIC (Clostridium histolyticum; 72 hrs) of 0.3 µg/mL (≈ 0.921 µM).
